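Five compound concentrations were applied to cells in 96-well plates for 48 hours; endpoints were derived by simple linear interpolation of the resulting dose-response curve. Here, GI50 denotes the concentration required for 50% inhibition of growth. TGI is the concentration that stops growth completely.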 *1 amine or outer side, *2 acyl side, *3 side chain or, on linkers, in order; H or OH if unused. Where a SMILES comes first, the peptide text is derived from it. [ ]: non-standard residue; d: D form. The star is where a group is joined. ξ: configuration not given here. X15 = CCN(CC)c1ccc2cc(N*)c(=O)oc2c1; dIva = CC[C@@](C)(N)C(=O)O; X14 = O=C(OCCN[*:1])[*:2]; Aib = CC(C)(N)C(=O)O; ξP = O=C(O)C1CCCN1; βAla = NCCC(=O)O

Among the test systems are A498 renal; MDA-MB-231 breast; NCI-H460 lung; PC-3 prostate; SK-MEL-2 melanoma; SR leukemia; T-47D breast; TK-10 renal; UACC-257 melanoma; OVCAR-4 ovarian.
What all share (test): NCI anticancer screen, dose series, 48 h

Regarding `COC(=O)C1=C(OC(=O)c2ccc(Cl)cc2)C(C(=O)OC)[C@@]2(O)[C@@H](C(=O)OC)C(c3ccccc3Cl)C[C@@H]1[C@@H]2C(=O)OC` (stereo partly specified), the GI50 with A498 renal is 2.81 µM; with MDA-MB-231 breast, 4.57 µM; in the assay on NCI-H460 lung, 4.18 µM; in the assay with PC-3 prostate, 37.2 µM; in the assay with SK-MEL-2 melanoma, 2.51 µM; with SR leukemia it was 8.11 µM. Besides, the GI50 was 9.39 µM with T-47D breast, 8 µM with TK-10 renal and 3.52 µM with UACC-257 melanoma. Besides, the TGI with A498 renal is 13.2 µM; in the assay with MDA-MB-231 breast, 17.5 µM; in the assay on NCI-H460 lung, > 100 µM; in the assay on PC-3 prostate, > 100 µM; with SK-MEL-2 melanoma it was 5.94 µM; in the assay with SR leukemia, > 100 µM. Moreover, the TGI was > 100 µM in the assay with T-47D breast, > 100 µM with TK-10 renal and 22.4 µM with UACC-257 melanoma.

With `FC(F)(F)c1ccc(-c2cnc(Cl)nc2NCc2cc(C(F)(F)F)cc(C(F)(F)F)c2)cc1`, the GI50 was 1.97 µM in the assay with A498 renal; 2.19 µM in the assay on MDA-MB-231 breast; 3.16 µM in the assay on NCI-H460 lung; 2.94 µM in the assay with OVCAR-4 ovarian; 2.35 µM with SK-MEL-2 melanoma; 3.67 µM with SR leukemia. The GI50 with T-47D breast was 3.14 µM; in the assay on TK-10 renal it was 3.16 µM; in the assay on UACC-257 melanoma, 2.18 µM. Besides, the TGI with A498 renal is 6.87 µM; with MDA-MB-231 breast it was 6.4 µM; in the assay with NCI-H460 lung it was > 100 µM; with OVCAR-4 ovarian it was > 100 µM; in the assay with SK-MEL-2 melanoma it was 5.28 µM; in the assay on SR leukemia, > 100 µM. Moreover, the TGI is > 100 µM in the assay with T-47D breast, > 100 µM in the assay with TK-10 renal and 7.28 µM in the assay on UACC-257 melanoma.

Turning to `CCN(CC)c1ccc2cc(NC(=O)OCCNC(=O)CCNC(=O)[C@H](CC(C)C)NC(=O)C(C)(C)NC(=O)C(C)(C)NC(=O)[C@H](CC(C)C)NC(=O)CCNC(=O)C(C)(C)NC(=O)[C@H](CC(C)C)NC(=O)CCNC(=O)[C@@](C)(CC)NC(=O)[C@H](C)NC(=O)CCNC(=O)C(C)(C)NC(=O)[C@H](C)NC(=O)[C@@H]3CCCN3C(=O)[C@@](C)(CC)NC(=O)[C@H](Cc3ccccc3)NC(=O)C3CCCN3C(=O)C(C)(C)NC(=O)C3CCCN3C(=O)C(C)(C)NC(C)=O)c(=O)oc2c1` (stereo partly specified) (Ac-[Aib][ξP][Aib][ξP]F[dIva]PA[Aib][βAla]A[dIva][βAla]L[Aib][βAla]L[Aib][Aib]L[βAla][X14]-X15), the GI50 with A498 renal is 0.00291 µM; with NCI-H460 lung, 0.00348 µM; with OVCAR-4 ovarian it was 0.00347 µM; in the assay on PC-3 prostate, 0.00311 µM; in the assay with SK-MEL-2 melanoma it was 0.00266 µM; in the assay on SR leukemia, 0.00423 µM. Further, the GI50 was 0.00302 µM in the assay with T-47D breast, 0.0142 µM in the assay on TK-10 renal and 0.00222 µM with UACC-257 melanoma. Moreover, the TGI was 0.0265 µM with A498 renal; 0.0138 µM with NCI-H460 lung; 0.0439 µM with OVCAR-4 ovarian; 0.0281 µM in the assay on PC-3 prostate; 0.00665 µM in the assay with SK-MEL-2 melanoma; 0.0235 µM in the assay on SR leukemia. Also, the TGI with T-47D breast came out at 0.0143 µM; with TK-10 renal, 0.079 µM; with UACC-257 melanoma, 0.0065 µM.

Regarding `CCC(/C=C/c1ccccc1)=N\Nc1ccc(Cl)c(Cl)c1`, the TGI with MDA-MB-231 breast is 55.7 µM; in the assay on NCI-H460 lung, > 100 µM; in the assay on PC-3 prostate, > 100 µM; in the assay with SK-MEL-2 melanoma it was 40.9 µM; in the assay with SR leukemia, > 100 µM; with T-47D breast, > 100 µM. Also, the TGI in the assay on TK-10 renal and in the assay on UACC-257 melanoma was > 100 µM throughout.

Regarding `Nc1c(C(=O)Nc2ccccc2)sc2nc3c(cc12)CN(Cc1ccccc1)CC3`, the GI50 is 5.81 µM in the assay with MDA-MB-231 breast; 7.51 µM with NCI-H460 lung; 1.97 µM in the assay with OVCAR-4 ovarian; 27.1 µM in the assay on PC-3 prostate; 20.3 µM with SK-MEL-2 melanoma; 13.1 µM with SR leukemia. Also, the GI50 in the assay on T-47D breast is 16.2 µM; in the assay on TK-10 renal, 4.09 µM; with UACC-257 melanoma it was 52.8 µM. The TGI with MDA-MB-231 breast is > 100 µM; in the assay on NCI-H460 lung, > 100 µM; in the assay with OVCAR-4 ovarian it was 23.1 µM; with PC-3 prostate it was > 100 µM; with SK-MEL-2 melanoma, > 100 µM; with SR leukemia, > 100 µM. Further, the figures for the TGI in the assay with T-47D breast, with TK-10 renal and in the assay with UACC-257 melanoma were > 100 µM, 54.7 µM and > 100 µM, respectively.

Take `CS/C(=N\c1nccs1)NC(=O)c1cccc(Cl)c1`: the TGI in the assay on A498 renal, in the assay with NCI-H460 lung, in the assay on OVCAR-4 ovarian, with SK-MEL-2 melanoma, in the assay on SR leukemia and with TK-10 renal was > 100 µM in each case. The TGI with UACC-257 melanoma is > 100 µM.

Consider `Cc1cn2c(/C=N/Nc3ccccn3)c(-c3ccc(Cl)c([N+](=O)[O-])c3)nc2s1`, for which the GI50 is 6.73 µM in the assay with MDA-MB-231 breast; 5.3 µM in the assay on NCI-H460 lung; 20.8 µM in the assay on PC-3 prostate; 21.2 µM in the assay with SK-MEL-2 melanoma; 1.86 µM with SR leukemia; > 50 µM with T-47D breast. For the same compound, the GI50 in the assay with TK-10 renal is 15.3 µM; in the assay with UACC-257 melanoma it was 21.3 µM. Further, the TGI is 18.2 µM in the assay on MDA-MB-231 breast; 22.3 µM with NCI-H460 lung; > 50 µM in the assay on PC-3 prostate; > 50 µM in the assay with SK-MEL-2 melanoma; 10.6 µM with SR leukemia; > 50 µM in the assay on T-47D breast. Moreover, the TGI in the assay with TK-10 renal is 47.3 µM; in the assay on UACC-257 melanoma, > 50 µM.

As for `O=c1cc(N=Nc2ccc(O)cc2)[nH]c(=O)[nH]1`, the TGI in the assay with A498 renal, in the assay with MDA-MB-231 breast, in the assay with NCI-H460 lung, in the assay with OVCAR-4 ovarian, in the assay with PC-3 prostate and with SK-MEL-2 melanoma was > 100 µM each time. For the same compound, the TGI with SR leukemia, in the assay on TK-10 renal and with UACC-257 melanoma was > 100 µM in each case.

For the compound `CC#CC1C(OC(=O)c2ccccc2)CCCC1(CI)N=[N+]=[N-]` (stereo unspecified), the TGI with A498 renal was > 100 µM; in the assay on NCI-H460 lung, > 100 µM; with OVCAR-4 ovarian, > 100 µM; with SK-MEL-2 melanoma, > 100 µM; in the assay with SR leukemia, 55.2 µM; in the assay on TK-10 renal, > 100 µM. In addition, the TGI in the assay with UACC-257 melanoma is > 100 µM.

For `O=C1NC2C=CN(Cc3ccccc3)C=C2C(=O)N2CCCC12` (stereo unspecified), the TGI in the assay with A498 renal, in the assay with NCI-H460 lung, with OVCAR-4 ovarian, in the assay on SK-MEL-2 melanoma, in the assay with SR leukemia and in the assay on TK-10 renal was > 100 µM each time. Further, the TGI in the assay with UACC-257 melanoma was > 100 µM.
